Results: patent US20240182460A1, “ALLOSTERIC CHROMENONE INHIBITORS OF PHOSPHOINOSITIDE 3-KINASE (PI3K) FOR THE TREATMENT OF DISEASE” (PETRA PHARMA CORPORATION, priority 2022, published 2024)
pIC50: −log10 of the molar value.

What was measured:
[1] = Metabolic stability and intrinsic clearance in human liver microsomes (MICS); assay type: in vitro ADME; conditions: human, microsomes, pH 7.4
Experimental: Metabolic Stability and Intrinsic Clearance in Liver Microsomes (MICS)
One objective of this assay is to measure in vitro metabolic stability of a test compound in liver microsomes of one or more different species. The concentration of a control compound in the reaction system is evaluated by LC/MS/MS for calculating intrinsic clearance of a test compound and estimating the stability of the control compound and test compound in liver microsomes of one or more different species.
Microsomes (MICS). Human Liver Microsomes (HLM), Monkey Liver Microsomes (MKLM), Dog Liver Microsomes (DLM), Rat Liver Microsomes (RLM), and Mouse Liver Microsomes (MLM) are obtained at a concentration of 20 mg/mL protein from commercial sources and stored in a −80° C. freezer. Prior to use, liver microsomes are removed from the freezer and allowed to thaw in a 37° C. water bath and then stored on wet ice.
Stock Solutions. Test Compound (TC) Stock Solutions are prepared in DMSO at a concentration of 10 mM and stored for later use. Positive Control (PC) Stock Solutions of verapamil·HCL (FW: 491.1 g/mol) in DMSO are prepared at a concentration of 10 mM (4.91 mg/mL), and stored at the condition same as the stock solutions of test compounds.
Phosphate Buffer. Phosphate Buffer (100 mM, pH 7.4) is prepared by combining a Solution A and a Solution B as follows.
To prepare Solution A, 7.098 g of disodium hydrogen phosphate was combined with 500 mL of pure water and sonicated to dissolve. To prepare the Solution B, 3.400 g of potassium dihydrogen phosphate was combined with 250 mL of pure water and sonicated to dissolve. Solution A was placed on a stirrer and Solution B was slowly added into Solution A until the pH reached 7.4.
NADPH Solution. A 10 mM NADPH Solution is prepared by dissolving NADPH (MW: 833.4 g/mol) at 8.334 mg/mL in phosphate buffer (100 mM, pH 7.4).
Microsome Master Solution. A Microsome Master Solution is prepared by adding 6.25 μL microsomes (20 mg/mL) to 216.25 μL Phosphate Buffer (100 mM). The final concentration is Phosphate Buffer (100 mM); microsomes (0.5 mg/mL).
Dilution of Stock Solutions. The TC Stock Solutions (10 mM in DMSO) and the PC Stock Solutions (10 mM in DMSO) are diluted by adding 3 μL of the TC Stock Solution or the PC Stock Solution to 297 μL of 50% acetonitrile/50% water.
Incubation. Two separated experiments were performed as follows. a) With Cofactors (NADPH): 25 μL of 10 mM NADPH was added to the incubations. The final concentrations of
microsomes and NADPH were 0.5 mg/mL and 1 mM, respectively. b) Without Cofactors (NADPH): 25 μL of 100 mM Phosphate buffer was added to the incubations. The final concentration of microsomes was 0.5 mg/mL. The mixture was pre-warmed at 37° C. for 10 minutes.
The reaction was started with the addition of 2.5 μL of 100 μM PC solution or TC solutions.
Verapamil was used as PC in this study. The final concentration of test compound or control compound was 1 μM. The incubation solution was incubated in water batch at 37° C.
Reaction Termination. Aliquots of 30 μL were taken from the reaction solution at 0.5, 5, 15, 30 and 60 minutes and added to plates. The reaction was stopped by the addition of 5 volumes of cold acetonitrile and a solution containing 100 nM alprazolam, 200 nM caffeine and 100 nM tolbutamide.
Sampling. The plates containing the terminated reactions were centrifuged at 4000 rpm for 30 minutes. Supernatant of each compound (40 μL) was transferred into a 96-well analysis plate.
Four compound samples are pooled together into one cassette and diluted by adding 160 μL of pure water. All incubations are performed in duplicate.
Analysis and Data Processing. Quantitative LC-MS analysis is performed, and peak areas are determined from extracted ion chromatograms. Percent parent remaining was calculated from peak area of TC or PC. The slope value, k, is determined by linear regression of the natural logarithm of percent parent remaining vs. incubation time curve. […]

[2] = biological target: PI3Kα E545K (Homo sapiens, UniProt P42336, E545K); test: PI3Kα E545K mutant in vitro cell based assay, MDA-MB-361 cells; set-up: MDA-MB-361 (ATCC-HTB-27) cell line (PI3Kα E545K); host or cells: MDA-MB-361; conditions: MDA-MB-361 cell line, 0% FBS, no insulin, 3 hours treatment
From the text: PI3K-Alpha Kinase (PI3Kα) Activity: Wild-Type PI3Kα, H1047R Mutant PI3Kα, and E545K Mutant PI3Kα In Vitro Cell Based Assays and Determination of IC50 Values for Inhibitors
The MDA-MB-453 (ATCC-HTB-131) cell line (PI3Kα H1047R) and MCF-7 (ATCC-HTB-22) cell line (PI3Kα E545K), MDA-MB-361 (ATCC-HTB-27) cell line (PI3Kα E545K), and SKBR3 (ATCC-HTB-30) cell line (wild type PI3Kα) were obtained from the American Type Culture Collection (Manassas, VA). MDA-MB-453 cells were maintained in Dulbecco's Modified Eagle Media (DMEM, Gibco 12430) supplemented with 10% Fetal Bovine Serum, heat inactivated (FBS HI, Gibco 10082), 1× non-essential amino acids (NEAA, Gibco 11140), 1 mM sodium pyruvate (Gibco 11360) and 1× Anti-Anti (Gibco 15240). MCF-7 cells were maintained in Minimum Essential Media (MEM) (Gibco 11095) supplemented with 10% Fetal Bovine Serum, heat inactivated (FBS HI, Gibco 10082), 1× non-essential amino acids (NEAA, Gibco 11140), 1 mM sodium pyruvate (Gibco 11360), 1× Anti-Anti (Gibco 15240) and 10 μg/mL human insulin (Sigma I 9278). MDA-MB-361 cells were maintained in Dulbecco's Modified Eagle Media (DMEM, Gibco 12430) supplemented with 20% Fetal Bovine Serum, heat inactivated (FBS HI, Gibco 10082), 1× non-essential amino acids (NEAA, Gibco 11140), 1 mM sodium pyruvate (Gibco 11360) and 1× Anti-Anti (Gibco 15240). SKBR3 cells were maintained in McCoy's 5A (Gibco 16600) supplemented with 10% Fetal Bovine Serum, heat inactivated (FBS HI, Gibco 10082), and 1× Anti-Anti (Gibco 15240). Cultures were maintained in a humidified incubator at 37° C. under 5% CO2/95% air.
For compound testing in 0% FBS, MDA-MB-453, MCF-7 and SKBR3 cells were seeded at a density of 1.5×10^4, 1.0×10^4, and 1.0×10^4 cells, respectively, per well in white 384-well plates in 20 μl of Minimum Essential Media (MEM) assay media with 1×NEAA, 1 mM sodium pyruvate, and 1 μg/mL human insulin (Sigma 19278) (Assay Medium); while MDA-MB-361 cells were seeded at a density of 1.5×10^4 per well in white 384-well plates in 20 μl Assay Medium without insulin. After plating, cells were allowed to attach overnight. Compounds dissolved in 10 mM stock solutions in DMSO were serially diluted 1:3 in DMSO to generate a 10-point dilution series and plated using an acoustic liquid handler system (Echo 550 Series Liquid Handler, Labcyte). A 5× intermediate compound dilution plate in MEM with 1×NEAA and 1 mM sodium pyruvate (150 μM starting compound concentration in 1.5% DMSO) was then prepared. Five μl of the intermediate serially diluted compounds were added to the cell plate to final concentrations ranging from […] in 0.3% DMSO. 0.3% DMSO alone was used to establish the maximum (MAX) signal and GDC-0032 at a final concentration of 1 μM was used as a reference compound for the minimum (MIN) signal. After 3 hours treatment, the medium was removed, and the cells were lysed in 10 μL of 1× SureFire Lysis buffer with shaking for 10 minutes at room temperature. The Acceptor Mix (Reaction Buffer 1+Reaction Buffer 2+Activation Buffer+SureFire Ultra Acceptor Beads) was prepared by diluting Activation buffer 25-fold in combined Reaction Buffer 1 and Reaction Buffer 2.
The Acceptor beads were diluted 50-fold in the combined Reaction Buffers. Five μL of Acceptor Mix was added to each well, the plate was sealed and covered with foil and incubated for 1 hour at room temperature. The Donor Mix (dilution buffer+SureFire Ultra Donor Beads) was prepared by diluting Donor Beads 50-fold in dilution buffer. Five μL of the Donor Mix was added to each well and the plate sealed and covered with foil and incubated for 1-2 hours at room temperature in the dark. The plates were read on a Neo2 plate reader instrument from Biotek using standard AlphaLisa settings.
Compounds were tested in duplicate and the % inhibition at each compound concentration was used to generate two dose response curves. One IC50 was generated using average % inhibition at each compound concentration. […]

Chain of PI3Kα E545K (P42336 whole entry E545K): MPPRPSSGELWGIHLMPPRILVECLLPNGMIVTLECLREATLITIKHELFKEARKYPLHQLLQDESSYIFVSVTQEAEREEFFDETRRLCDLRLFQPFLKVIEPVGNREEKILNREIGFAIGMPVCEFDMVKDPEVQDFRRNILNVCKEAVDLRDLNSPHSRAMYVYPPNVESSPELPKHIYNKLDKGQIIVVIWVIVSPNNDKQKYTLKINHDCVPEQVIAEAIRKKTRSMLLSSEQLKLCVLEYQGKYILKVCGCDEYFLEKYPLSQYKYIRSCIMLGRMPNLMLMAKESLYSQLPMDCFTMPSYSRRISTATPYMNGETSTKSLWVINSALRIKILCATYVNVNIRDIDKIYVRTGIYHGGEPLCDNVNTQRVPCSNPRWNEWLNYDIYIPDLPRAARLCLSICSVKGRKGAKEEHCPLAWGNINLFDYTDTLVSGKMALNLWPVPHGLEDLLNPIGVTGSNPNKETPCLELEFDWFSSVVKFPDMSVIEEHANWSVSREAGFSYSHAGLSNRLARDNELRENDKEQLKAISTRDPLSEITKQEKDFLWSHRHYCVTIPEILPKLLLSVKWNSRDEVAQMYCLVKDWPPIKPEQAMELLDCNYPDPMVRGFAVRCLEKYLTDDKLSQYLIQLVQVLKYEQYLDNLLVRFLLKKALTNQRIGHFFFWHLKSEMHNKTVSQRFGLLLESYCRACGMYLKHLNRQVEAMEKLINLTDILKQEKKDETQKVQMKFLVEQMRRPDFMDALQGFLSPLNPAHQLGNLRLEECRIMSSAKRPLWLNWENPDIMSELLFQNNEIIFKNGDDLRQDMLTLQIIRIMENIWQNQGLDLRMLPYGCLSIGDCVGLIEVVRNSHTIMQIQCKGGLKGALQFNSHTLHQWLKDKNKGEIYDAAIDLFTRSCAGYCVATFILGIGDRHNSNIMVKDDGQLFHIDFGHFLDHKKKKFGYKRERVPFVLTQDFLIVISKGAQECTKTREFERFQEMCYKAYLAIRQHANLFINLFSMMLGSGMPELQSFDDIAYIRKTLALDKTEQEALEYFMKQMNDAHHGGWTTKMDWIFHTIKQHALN
Chain of PI3Kα E545K (P27986 whole entry partner): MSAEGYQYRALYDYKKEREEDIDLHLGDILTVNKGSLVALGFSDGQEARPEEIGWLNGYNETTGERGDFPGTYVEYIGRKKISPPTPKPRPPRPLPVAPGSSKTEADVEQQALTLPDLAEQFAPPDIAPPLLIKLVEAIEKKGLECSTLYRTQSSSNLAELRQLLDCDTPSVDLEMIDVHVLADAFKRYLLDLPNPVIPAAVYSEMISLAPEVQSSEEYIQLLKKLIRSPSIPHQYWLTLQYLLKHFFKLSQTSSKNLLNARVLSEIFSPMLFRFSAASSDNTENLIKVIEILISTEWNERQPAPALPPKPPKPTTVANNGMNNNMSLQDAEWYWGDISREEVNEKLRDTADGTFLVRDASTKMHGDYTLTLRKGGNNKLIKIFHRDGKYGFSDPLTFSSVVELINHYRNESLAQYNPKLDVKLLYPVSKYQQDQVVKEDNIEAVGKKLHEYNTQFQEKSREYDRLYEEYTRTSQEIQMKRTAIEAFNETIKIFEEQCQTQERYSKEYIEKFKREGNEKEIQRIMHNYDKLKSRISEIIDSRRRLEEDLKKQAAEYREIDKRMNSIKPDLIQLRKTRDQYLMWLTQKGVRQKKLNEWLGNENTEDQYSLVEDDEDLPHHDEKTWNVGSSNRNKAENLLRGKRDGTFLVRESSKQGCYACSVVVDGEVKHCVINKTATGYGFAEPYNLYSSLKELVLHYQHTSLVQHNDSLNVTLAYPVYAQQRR

| Compound | microsomal CLint at 1 μM [1] [µL/min/mg] | pIC50 [2] |
| --- | --- | --- |
| Cc1cc([C@@H](C)Oc2ccc(F)nc2S(N)(=O)=O)c2oc(-c3ccccc3)c(C)c(=O)c2c1 [Example 74C, 3-[(1R)-1-(3,6-Dimethyl-4-oxo-2-phenyl-chromen-8-yl)ethoxy]-6-fluoro-pyridine-2-sulfonamide] | < 50 | > 6.30 |
| Cc1cc([C@@H](C)Oc2ccc(F)cc2S(N)(=O)=O)c2oc(-c3cnn(C)c3)c(C)c(=O)c2c1 [Example 105C, 2-[(1R)-1-[3,6-Dimethyl-2-(1-methylpyrazol-4-yl)-4-oxo-chromen-8-yl]ethoxy]-5-fluoro-benzenesulfonamide] | < 50 | > 6.30 |
| CCn1cc2cc(-c3oc4c([C@@H](C)Oc5ccc(Cl)nc5C(N)=O)cc(C)cc4c(=O)c3C)ccc2n1 [Example 75C, 6-Chloro-3-[(1R)-1-[2-(2-ethylindazol-5-yl)-3,6-dimethyl-4-oxo-chromen-8-yl]ethoxy]pyridine-2-carboxamide] | < 50 | > 6.30 |
| Cc1cc([C@@H](C)Oc2ccc(Cl)nc2C(N)=O)c2oc(-c3cnc4ccoc4c3)c(C)c(=O)c2c1 [Example 80C, 6-Chloro-3-[(1R)-1-(2-furo[3,2-b]pyridin-6-yl-3,6-dimethyl-4-oxo-chromen-8-yl)ethoxy]pyridine-2-carboxamide] | < 50 | > 6.30 |
| Cc1cc([C@@H](C)Oc2ccc(Cl)nc2C(N)=O)c2oc(-c3ccc4nn(C)cc4c3)c(C)c(=O)c2c1 [Example 11A, 6-Chloro-3-[(1R)-1-[3,6-dimethyl-2-(2-methylindazol-5-yl)-4-oxo-chromen-8-yl]ethoxy]pyridine-2-carboxamide] | < 50 | > 6.30 |
| Cc1cc([C@@H](C)Oc2ccc(Cl)cc2S(N)(=O)=O)c2oc(C3CC3)c(C)c(=O)c2c1 [Example 101C, 5-Chloro-2-[(1R)-1-(2-cyclopropyl-3,6-dimethyl-4-oxo-chromen-8-yl)ethoxy]benzenesulfonamide] | < 50 | > 6.30 |
| Cc1cc([C@@H](C)Oc2ccc(Cl)nc2S(N)(=O)=O)c2oc(-c3cnc4ccoc4c3)c(C)c(=O)c2c1 [Example 22C, 6-Chloro-3-[(1R)-1-(2-furo[3,2-b]pyridin-6-yl-3,6-dimethyl-4-oxo-chromen-8-yl)ethoxy]pyridine-2-sulfonamide] | < 50 | > 6.30 |
| Cc1cc([C@@H](C)Oc2ccc(Cl)nc2S(N)(=O)=O)c2oc(-c3cnn(CC(C)(C)O)c3)c(C)c(=O)c2c1 [Example 2B, 6-Chloro-3-[(1R)-1-[2-[1-(2-hydroxy-2-methyl-propyl)pyrazol-4-yl]-3,6-dimethyl-4-oxo-chromen-8-yl]ethoxy]pyridine-2-sulfonamide] | < 50 | > 6.30 |

Other lines, results leading:

| microsomal CLint at 1 μM [1] [µL/min/mg] | pIC50 [2] | Compound |
| --- | --- | --- |
| < 50 | > 6.30 | Cc1cc([C@@H](C)Oc2ccc(Cl)cc2S(N)(=O)=O)c2oc(-c3cnn(C)c3)c(C)c(=O)c2c1 [Example 99C, 5-Chloro-2-[(1R)-1-[3,6-dimethyl-2-(1-methylpyrazol-4-yl)-4-oxo-chromen-8-yl]ethoxy]benzenesulfonamide] |
| < 50 | > 6.30 | Cc1cc([C@@H](C)Oc2ccc(Cl)nc2S(N)(=O)=O)c2oc(-c3cnn(C[C@@H](C)O)c3)c(C)c(=O)c2c1 [Example 4B, 6-Chloro-3-[(1R)-1-[2-[1-[(2R)-2-hydroxypropyl]pyrazol-4-yl]-3,6-dimethyl-4-oxo-chromen-8-yl]ethoxy]pyridine-2-sulfonamide] |
| < 50 | > 6.30 | Cc1cc([C@@H](C)Oc2ccc(Cl)nc2C(N)=O)c2oc(-c3cnc(OC(C)C)nc3)c(C)c(=O)c2c1 [Example 79C, 6-Chloro-3-[(1R)-1-[2-(2-isopropoxypyrimidin-5-yl)-3,6-dimethyl-4-oxo-chromen-8-yl]ethoxy]pyridine-2-carboxamide] |
